Each structure is given as a SMILES string.

The text below walks through data of patent US20100184770A1, “COMPOUNDS” (Glaxo Group Limited, priority 2006, published 2010).

Assay type in all cases: cell-based
Assay [1] has as its target T1, human H1 receptor (Homo sapiens, UniProt P35367).
T1 construct: expressed in transfected cells
The assay can be described thus: Histamine H1 functional antagonist assay: determination of antagonist pA2 (FLIPR). On the procedure:
(§1) 1. Generation of Histamine H1 Cell Line The human H1 receptor is cloned using known procedures described in the literature [Biochem. Biophys. Res. Commun., 201(2):894 (1994)]. Chinese hamster ovary (CHO) cells stably expressing the human H1 receptor are generated according to known procedures described in the literature [Br. J. Pharmacol., 117(6):1071 (1996)].
The histamine H1 receptor expressing CHO cells are seeded into non-coated black-walled clear bottom 96-well tissue culture plates as described above. […]
The plates are then placed into a FLIPR™ (Molecular Devices, UK) to monitor cell fluorescence (λex=488 nm, λEM=540 nm) in the manner described in Sullivan et al., (In: Lambert D G (ed.), Calcium Signaling Protocols, New Jersey: Humana Press, 1999, 125-136) before and after the addition of 50 μl histamine over a concentration range of 1 mM 0.1 nM. […] The antagonist pA2 is calculated using the following standard equation: pA2=log(DR-1)−log [B] where DR=dose ratio, defined as EC50 antagonist-treated/EC50 control and [B]=concentration of antagonist.

Assay [2] deals with T1, human H1 receptor. Briefly: Histamine H1 functional antagonist assay: determination of functional pKi values (FLIPR). The following applies: CHO cells expressing human H1 receptor, histamine at EC80, FLIPR, read-out: average pKi (pKb) at H1 (converted). On the procedure: as §1
The histamine H1 cell line is seeded into non-coated black-walled clear bottom 384-well tissue culture plates in alpha minimum essential medium (Gibco/Invitrogen, cat no. 22561-021), supplemented with 10% dialysed foetal calf serum (Gibco/Invitrogen cat no. 12480-021) and 2 mM L-glutamine (Gibco/Invitrogen cat no 25030-024) and is maintained overnight at 5% CO2, 37° C.
Excess medium is removed from each well to leave 10 μl. 30 μl loading dye (250 μM Brilliant Black, 2 μM Fluo-4 diluted in Tyrodes buffer+probenecid (145 mM NaCl, 2.5 mM KCl, 10 mM HEPES, 10 mM D-glucose, 1.2 mM MgCl2, 1.5 mM CaCl2, 2.5 mM probenecid, pH adjusted to 7.40 with NaOH 1.0 M)) is added to each well and the plates are incubated for 60 min at 5% CO2, 37° C.
10 μl of test compound, diluted to the required concentration in Tyrodes buffer+probenecid (or 10 μl Tyrodes buffer+probenecid as a control) is added to each well and the plate is incubated for 30 min at 37° C., 5% CO2. The plates are then placed into a FLIPR™ (Molecular. Devices, UK) to monitor cell fluorescence (λex=488 nm, λEM=540 nm) in the manner described in Sullivan et al., (In: Lambert DG (ed.), Calcium Signaling Protocols, New Jersey: Humana Press, 1999, 125-136) before and after the addition of […] at a concentration that results in the final assay concentration of histamine being EC80.
Functional antagonism is indicated by a suppression of histamine induced increase in fluorescence, as measured by the FLIPR™ system (Molecular Devices). By means of concentration effect curves, functional affinities are determined using standard pharmacological mathematical analysis.

Assay [3] has as its target T1, human H1 receptor. Briefly: Histamine H1 functional antagonist assay: determination of antagonist duration (washout, FLIPR). The following applies: at one or more time points after washout. How it is done: as §1
To determine the antagonist duration, cells are cultured overnight in non-coated black-walled clear bottom 96-well tissue culture plates, are washed with PBS and are incubated with a concentration of antagonist chosen to give an approximate DR in the range 30-300. Following the 30 min antagonist incubation period, the cells are washed two or three times with 200 μl of PBS and then 100 μl Tyrodes buffer is added to each well to initiate antagonist dissociation. Following incubation for predetermined times, typically 30-270 min at 37° C., the cells are then washed again with 200 μl PBS and are incubated with 100 Tyrodes buffer containing Brilliant Black, probenecid and Fluo-4 for 45 min at 37° C., as described above. After this period, the cells are challenged with histamine in the FLIPR™ as described above. The dose ratio at each time point is used to determine the fractional H1 receptor occupancy by the following equation: fractional receptor occupancy=(DR-1)/DR. The decrease in receptor occupancy over time approximates to a straight line and is analysed by linear regression. The slope of this straight line fit is used as an index of the dissociation rate of the antagonist. The dose ratios for antagonist treated cells and for antagonist treated and washed cells at each time point are used to calculate a relative dose ratio (rel DR) which is also used as an index of antagonist duration. Antagonists with long duration of action produce rel DR values close to 1, and antagonists with short duration of action produce rel DR values that approaches the dose ratio value obtained for antagonist treatment alone.

T1 sequence (P35367 whole entry): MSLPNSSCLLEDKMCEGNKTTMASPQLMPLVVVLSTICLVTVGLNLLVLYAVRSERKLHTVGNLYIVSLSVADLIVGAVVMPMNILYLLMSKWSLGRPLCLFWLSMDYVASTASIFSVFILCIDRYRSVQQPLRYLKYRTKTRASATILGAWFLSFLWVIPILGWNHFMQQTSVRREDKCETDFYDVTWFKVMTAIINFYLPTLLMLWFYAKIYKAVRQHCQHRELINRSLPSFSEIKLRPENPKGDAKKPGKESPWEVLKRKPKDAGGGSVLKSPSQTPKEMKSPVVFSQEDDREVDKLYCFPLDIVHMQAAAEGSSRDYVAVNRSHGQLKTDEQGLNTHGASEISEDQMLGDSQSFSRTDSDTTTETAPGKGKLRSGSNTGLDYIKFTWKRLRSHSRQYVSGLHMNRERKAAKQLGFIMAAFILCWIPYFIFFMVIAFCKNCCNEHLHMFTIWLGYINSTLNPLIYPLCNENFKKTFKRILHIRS

The Kb is the equilibrium dissociation constant of an antagonist, usually derived from a functional assay. On human H1 receptor [1], `COCCC(=O)NCCN1CCC[C@@H]1Cn1nc(Cc2ccc(Cl)cc2)c2ccccc2c1=O.O=CO` [Example 35, N-[2-((2R)-2-{[4-[(4-Chlorophenyl)methyl]-1-oxo-2(1H)-phthalazinyl]methyl}-1-pyrrolidinyl)ethyl]-3-(methyloxy)propanamide, formate salt] yielded a Kb of under 10 nM. The Ki on human H1 receptor [2] is under 316 nM. For the same molecule, the “duration of action compared with azelastine in the histamine H1 functional antagonist assay” value at human H1 receptor [3] was “longer duration of action than azelastine”.

With `Cl.O=C(CC(F)(F)F)NCCN1CCC[C@@H]1Cn1nc(Cc2ccc(Cl)cc2)c2ccccc2c1=O` [Example 36a, N-[2-((2R)-2-{[4-[(4-Chlorophenyl)methyl]-1-oxo-2(1H)-phthalazinyl]methyl}-1-pyrrolidinyl)ethyl]-3,3,3-trifluoropropanamide, hydrochloride], the antagonist equilibrium constant (Kb) at human H1 receptor [1] is under 10 nM. At human H1 receptor [2], the Ki was under 31.6 nM. Further, on human H1 receptor [3], the “duration of action compared with azelastine in the histamine H1 functional antagonist assay” value is “longer duration of action than azelastine”.
